Experimental data published in patent US7211572B2 (Japan Tobacco Inc., priority 2003, dated 2007).
Counter-ions that a name gives are not always drawn.

The compounds below were run against T1, HIV integrase (Human immunodeficiency virus type 1 group M subtype B, UniProt P12497, F1332H) (assay: Determination of enzyme (HIV integrase) inhibitory activity). Details: recombinant HIV integrase (F185H), strand transfer ELISA, absorbance at 450 nm.
T1 construct: HIV integrase full length gene; made in house; host or cells: Escherichia coli BL21(DE3), plasmid pET21a-INH
Type: biochemical
Summary of the method: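 Full-length integrase with F185H, expressed in E. coli and purified, was reacted for 60 min at 37 °C with compound and biotinylated donor DNA bound to streptavidin plates. Target DNA was added for 10 min, then anti-digoxigenin-peroxidase detection at A450; IC50 from % inhibition versus enzyme-free blank.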

Structure (SMILES) | IC50
O=C(NCCF)c1cn2ccn(Cc3cccc(Cl)c3)c(=O)c2c(O)c1=O [Example 233, N-(2-fluoroethyl)-2-(3-chlorobenzyl)-9-hydroxy-1,8-dioxo-1,8-dihydro-2H-pyrido[1,2-a]pyrazine-7-carboxamide] | < 10 nM
CN(Cc1ccccc1)C(=O)c1cn2ccn(Cc3cccc(Cl)c3)c(=O)c2c(O)c1=O [Example 234, N-benzyl-N-methyl-2-(3-chlorobenzyl)-9-hydroxy-1,8-dioxo-1,8-dihydro-2H-pyrido[1,2-a]pyrazine-7-carboxamide] | < 10 nM
O=c1c(Sc2ccccc2)cn2ccn(Cc3cccc(Cl)c3)c(=O)c2c1O [Example 235, 2-(3-chlorobenzyl)-9-hydroxy-7-phenylsulfanyl-2H-pyrido [1,2-a]pyrazine-1,8-dione] | 10 to 100 nM
O=c1c([S+]([O-])c2ccccc2)cn2ccn(Cc3cccc(Cl)c3)c(=O)c2c1O (stereo not drawn) [Example 236, 7-benzenesulfinyl-2-(3-chlorobenzyl)-9-hydroxy-2H-pyrido[1,2-a]pyrazine-1,8-dione] | 10 to 100 nM
O=c1c(S(=O)(=O)c2ccccc2)cn2ccn(Cc3cccc(Cl)c3)c(=O)c2c1O [Example 237, 7-benzenesulfonyl-2-(3-chlorobenzyl)-9-hydroxy-2H-pyrido [1,2-a]pyrazine-1,8-dione] | 10 to 100 nM
CC(C)(C)C(=O)c1cn2c(c(O)c1=O)C(=O)N(Cc1ccc(Cl)c(Cl)c1)CC2 [Example 238, 2-(3,4-dichlorobenzyl)-7-(2,2-dimethylpropionyl)-9-hydroxy-3,4-dihydro-2H-pyrido[1,2-a]pyrazine-1,8-dione] | < 10 nM
CC(C)C(=O)Nc1cn2ccn(Cc3cccc(Cl)c3)c(=O)c2c(O)c1=O [Example 239, N-[2-(3-chlorobenzyl)-9-hydroxy-1,8-dioxo-1,8-dihydro-2H-pyrido[1,2-a]pyrazin-7-yl]isobutyramide] | < 10 nM
CC(=O)Nc1cn2ccn(Cc3ccc(F)c(Cl)c3)c(=O)c2c(O)c1=O [Example 240, N-[2-(3-chloro-4-fluorobenzyl)-9-hydroxy-1,8-dioxo-1,8-dihydro-2H-pyrido[1,2-a]pyrazin-7-yl]acetamide] | < 10 nM
CC(C)(C)C(=O)c1cn2c(CO)cn(Cc3ccc(F)c(Cl)c3)c(=O)c2c(O)c1=O [Example 241, 2-(3-chloro-4-fluorobenzyl)-7-(2,2-dimethylpropionyl)-9-hydroxy-4-hydroxymethyl-2H-pyrido[1,2-a]pyrazine-1,8-dione hydrochloride] | < 10 nM
CCC(=O)Nc1cn2ccn(Cc3cccc(Cl)c3)c(=O)c2c(O)c1=O [Example 242, N-[2-(3-chlorobenzyl)-9-hydroxy-1,8-dioxo-1,8-dihydro-2H-pyrido[1,2-a]pyrazin-7-yl]propionamide] | < 10 nM
O=C(Cc1ccccc1)Nc1cn2ccn(Cc3cccc(Cl)c3)c(=O)c2c(O)c1=O [Example 243, N-[2-(3-chlorobenzyl)-9-hydroxy-1,8-dioxo-1,8-dihydro-2H-pyrido[1,2-a]pyrazin-7-yl]-2-phenylacetamide] | < 10 nM
CC(=O)c1cn2ccn(Cc3ccc(F)c(Cl)c3)c(=O)c2c(O)c1=O [Example 244, 7-acetyl-2-(3-chloro-4-fluorobenzyl)-9-hydroxy-2H-pyrido[1,2-a]pyrazine-1,8-dione hydrochloride] | < 10 nM
CSc1cn2ccn(Cc3cccc(Cl)c3)c(=O)c2c(O)c1=O [Example 245, 2-(3-chlorobenzyl)-9-hydroxy-7-methylsulfanyl-2H-pyrido[1,2-a]pyrazine-1,8-dione] | 10 to 100 nM
CS(=O)(=O)c1cn2ccn(Cc3cccc(Cl)c3)c(=O)c2c(O)c1=O [Example 246, 2-(3-chlorobenzyl)-9-hydroxy-7-methanesulfonyl-2H-pyrido[1,2-a]pyrazine-1,8-dione] | 10 to 100 nM
C[S+]([O-])c1cn2ccn(Cc3cccc(Cl)c3)c(=O)c2c(O)c1=O (stereo not drawn) [Example 247, 2-(3-chlorobenzyl)-9-hydroxy-7-methanesulfinyl-2H-pyrido[1,2-a]pyrazine-1,8-dione] | 10 to 100 nM
